Results as given in ChEMBL document CHEMBL1949499, “Nicotinic acids: liver-targeted SCD inhibitors with preclinical anti-diabetic efficacy” (Bioorg Med Chem Lett, 2011).
pIC50: −log10 of the molar value.

Legend:
Stearoyl-CoA desaturase = molecular target: T1, Stearoyl-CoA desaturase (Homo sapiens, UniProt O00767); assay: Inhibition of human SCD1 expressed in human HepG2 cells assessed as conversion of [14C]stearic acid to [14C]oleic acid; type: cell-based
T1 sequence (O00767 whole entry): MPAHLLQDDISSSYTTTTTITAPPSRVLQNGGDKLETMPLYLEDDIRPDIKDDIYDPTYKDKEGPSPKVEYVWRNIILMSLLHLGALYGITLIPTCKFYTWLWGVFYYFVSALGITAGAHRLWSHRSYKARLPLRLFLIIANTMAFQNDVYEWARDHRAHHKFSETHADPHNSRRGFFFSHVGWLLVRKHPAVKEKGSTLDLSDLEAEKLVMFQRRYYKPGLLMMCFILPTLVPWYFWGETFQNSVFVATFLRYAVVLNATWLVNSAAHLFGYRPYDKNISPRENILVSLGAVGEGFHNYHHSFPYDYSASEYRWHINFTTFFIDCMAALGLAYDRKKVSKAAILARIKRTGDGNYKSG

[1] = Plasma concentration in C57/BL6 mouse at 30 mg/kg, po after 2 hrs; type: ADME, organism-based; parameters: dose 30 mg/kg, route oral
[2] = Drug uptake in C57/BL6 mouse skin at 30 mg/kg, po after 2 hrs; type: ADME, organism-based, Zone of skin; parameters: dose 30 mg/kg, route oral; conditions: read-out: Drug uptake
Acyl-CoA desaturase 1 [3] = molecular target: T2, Acyl-CoA desaturase 1 (Mus musculus, UniProt P13516); assay: Inhibition of mouse SCD1
T2 sequence (P13516 whole entry): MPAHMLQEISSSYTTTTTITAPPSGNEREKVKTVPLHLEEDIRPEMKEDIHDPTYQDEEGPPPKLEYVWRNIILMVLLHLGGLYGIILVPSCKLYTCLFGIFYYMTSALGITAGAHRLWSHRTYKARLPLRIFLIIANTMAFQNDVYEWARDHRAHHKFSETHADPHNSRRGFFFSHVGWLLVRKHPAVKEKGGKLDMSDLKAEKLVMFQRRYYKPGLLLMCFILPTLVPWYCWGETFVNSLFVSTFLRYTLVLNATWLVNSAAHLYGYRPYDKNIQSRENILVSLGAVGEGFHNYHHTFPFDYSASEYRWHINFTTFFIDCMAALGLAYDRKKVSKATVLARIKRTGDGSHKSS

[4] = Ratio of drug uptake in left median liver lobe to harderian gland in C57/BL6 mouse at 10 mg/kg, po after 6 hrs; type: ADME, organism-based; parameters: dose 10 mg/kg, route oral; conditions: in vivo
[5] = Drug uptake in high sucrose/fat free diet fed C57/BL6 mouse liver at 30 mg/kg, po after 3 hrs; type: ADME, organism-based; parameters: dose 30 mg/kg, route oral; conditions: read-out: Drug uptake
HepG2 = assay: Selectivity ratio of IC50 for human SCD1 expressed in human HepG2 cells to IC50 for rat SCD1 in Sprague-Dawley rat hepatocytes; type: cell-based
[6] = Oral bioavailability in Sprague-Dawley rat plasma at 10 mg/kg; type: ADME, organism-based
[7] = molecular target: ATP-binding cassette sub-family C member 2 (Homo sapiens, UniProt Q92887); assay: Binding affinity to MRP2 expressed in MDCK2 cells coexpressing OATP1B3; type: cell-based; conditions: dog, mdck-ii
ATP-binding cassette sub-family C member 2, sequence (Q92887 whole entry): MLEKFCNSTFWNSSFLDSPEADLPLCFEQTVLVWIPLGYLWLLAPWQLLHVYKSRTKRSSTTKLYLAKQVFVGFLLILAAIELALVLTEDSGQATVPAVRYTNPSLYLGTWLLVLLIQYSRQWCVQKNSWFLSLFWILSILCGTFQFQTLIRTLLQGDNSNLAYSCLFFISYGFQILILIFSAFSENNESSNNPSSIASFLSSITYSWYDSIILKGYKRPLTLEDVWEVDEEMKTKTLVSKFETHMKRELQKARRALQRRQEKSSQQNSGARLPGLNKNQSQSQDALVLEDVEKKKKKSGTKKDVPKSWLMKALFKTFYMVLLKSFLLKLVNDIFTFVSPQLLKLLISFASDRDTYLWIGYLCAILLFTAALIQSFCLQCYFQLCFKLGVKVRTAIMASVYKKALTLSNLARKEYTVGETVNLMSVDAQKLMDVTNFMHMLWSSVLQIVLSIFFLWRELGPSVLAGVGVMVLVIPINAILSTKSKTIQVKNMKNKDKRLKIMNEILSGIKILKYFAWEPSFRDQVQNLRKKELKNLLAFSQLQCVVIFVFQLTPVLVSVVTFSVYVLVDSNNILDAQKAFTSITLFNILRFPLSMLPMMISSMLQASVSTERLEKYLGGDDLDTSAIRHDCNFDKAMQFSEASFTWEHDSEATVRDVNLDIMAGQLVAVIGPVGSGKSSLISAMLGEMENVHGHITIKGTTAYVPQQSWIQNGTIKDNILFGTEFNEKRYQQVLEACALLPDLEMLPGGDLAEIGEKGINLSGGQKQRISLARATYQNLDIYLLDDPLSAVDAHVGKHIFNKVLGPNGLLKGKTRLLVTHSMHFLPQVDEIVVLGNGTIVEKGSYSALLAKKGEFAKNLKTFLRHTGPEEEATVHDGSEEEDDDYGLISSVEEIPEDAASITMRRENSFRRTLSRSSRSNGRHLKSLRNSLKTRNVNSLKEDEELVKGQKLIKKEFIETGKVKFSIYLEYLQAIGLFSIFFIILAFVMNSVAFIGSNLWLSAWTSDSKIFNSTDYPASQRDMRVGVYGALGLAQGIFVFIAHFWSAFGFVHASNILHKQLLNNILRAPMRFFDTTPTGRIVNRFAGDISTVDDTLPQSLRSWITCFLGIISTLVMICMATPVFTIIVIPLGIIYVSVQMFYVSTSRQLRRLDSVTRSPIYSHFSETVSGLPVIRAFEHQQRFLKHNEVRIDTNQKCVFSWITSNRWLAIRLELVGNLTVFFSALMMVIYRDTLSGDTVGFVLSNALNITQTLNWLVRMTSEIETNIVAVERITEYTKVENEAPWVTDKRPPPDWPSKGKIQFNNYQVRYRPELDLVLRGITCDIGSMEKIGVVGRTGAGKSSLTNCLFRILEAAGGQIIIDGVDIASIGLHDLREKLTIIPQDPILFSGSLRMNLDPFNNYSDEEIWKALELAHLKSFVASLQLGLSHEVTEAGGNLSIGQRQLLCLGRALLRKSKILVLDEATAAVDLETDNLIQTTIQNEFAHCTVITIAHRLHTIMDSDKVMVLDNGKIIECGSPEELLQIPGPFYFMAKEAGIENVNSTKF

[8] = Plasma clearance in Sprague-Dawley rat at 10 mg/kg, po and 2 mg/kg, iv; type: ADME, organism-based
[9] = Drug uptake in C57/BL6 mouse skin at 30 mg/kg, po after 6 hrs; type: ADME, organism-based, Zone of skin; parameters: dose 30 mg/kg, route oral; conditions: read-out: Drug uptake
[10] = Drug uptake in C57/BL6 mouse kidney at 30 mg/kg, po after 6 hrs; type: ADME, organism-based; parameters: dose 30 mg/kg, route oral; conditions: read-out: Drug uptake
[11] = Drug uptake in C57/BL6 mouse harderian glands at 30 mg/kg, po after 24 hrs; type: ADME, organism-based, Harderian gland; parameters: dose 30 mg/kg, route oral; conditions: read-out: Drug uptake
[12] = molecular target: T3, Stearoyl-CoA desaturase 5 (Homo sapiens, UniProt Q86SK9); assay: Inhibition of human SCD5
T3 sequence (Q86SK9 whole entry): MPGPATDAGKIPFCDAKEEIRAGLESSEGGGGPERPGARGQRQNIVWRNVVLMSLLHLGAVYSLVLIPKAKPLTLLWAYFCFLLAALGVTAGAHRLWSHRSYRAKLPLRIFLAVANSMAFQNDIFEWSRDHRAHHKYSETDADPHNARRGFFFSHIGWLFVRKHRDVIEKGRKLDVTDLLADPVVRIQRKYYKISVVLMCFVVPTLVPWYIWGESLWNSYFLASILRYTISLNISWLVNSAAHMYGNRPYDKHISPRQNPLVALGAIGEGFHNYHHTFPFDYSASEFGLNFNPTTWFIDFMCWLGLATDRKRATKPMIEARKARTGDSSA

Nucleic Acid = assay: Ratio of drug uptake in high fat diet fed C57/BL6 mouse eDIO model whole blood to high sucrose/fat free diet fed C57/BL6 mouse plasma; type: ADME; conditions: in vivo
[13] = Drug uptake in high sucrose/fat free diet fed C57/BL6 mouse liver at 100 mg/kg, po after 3 hrs; type: ADME, organism-based; parameters: dose 100 mg/kg, route oral; conditions: read-out: Drug uptake
[14] = Drug uptake in C57/BL6 mouse heart at 30 mg/kg, po after 6 hrs; type: ADME, organism-based; parameters: dose 30 mg/kg, route oral; conditions: read-out: Drug uptake
[15] = Drug uptake in C57/BL6 mouse cerebellum at 30 mg/kg, po after 24 hrs; type: ADME, organism-based; parameters: dose 30 mg/kg, route oral; conditions: read-out: Drug uptake
Mus musculus [16] = assay: Inhibition of SCD activity in high sucrose/fat free diet fed C57/BL6 mouse liver assessed as reduction in conversion of [14C]stearic acid to [14C]oleic acid at 30 mg/kg, po; type: functional
Acyl-CoA desaturase 1 [17] = molecular target: T4, Acyl-CoA desaturase 1 (Rattus norvegicus, UniProt P07308); assay: Inhibition of rat SCD1
T4 sequence (P07308 whole entry): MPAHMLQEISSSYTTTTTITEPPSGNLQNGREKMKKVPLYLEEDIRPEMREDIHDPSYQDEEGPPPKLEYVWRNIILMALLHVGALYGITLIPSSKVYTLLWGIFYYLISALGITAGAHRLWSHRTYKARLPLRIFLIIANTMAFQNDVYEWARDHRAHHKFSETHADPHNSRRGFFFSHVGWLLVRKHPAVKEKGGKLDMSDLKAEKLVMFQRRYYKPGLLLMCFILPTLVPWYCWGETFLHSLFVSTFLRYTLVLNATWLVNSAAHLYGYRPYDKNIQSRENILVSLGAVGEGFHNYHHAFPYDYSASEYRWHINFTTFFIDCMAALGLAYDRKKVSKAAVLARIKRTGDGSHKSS

[18] = Plasma clearance in C57/BL6 mouse at 10 mg/kg, po and 2 mg/kg, iv; type: ADME, organism-based
[19] = Drug uptake in C57/BL6 mouse left epididymal fat at 30 mg/kg, po after 6 hrs; type: ADME, organism-based, Epididymal fat pad; parameters: dose 30 mg/kg, route oral; conditions: male, read-out: Drug uptake
Mus musculus [20] = assay: Inhibition of SCD activity in high sucrose/fat free diet fed C57/BL6 mouse liver assessed as reduction in conversion of [14C]stearic acid to [14C]oleic acid at 10 mg/kg, po; type: functional
[21] = Drug uptake in C57/BL6 mouse left epididymal fat at 30 mg/kg, po after 24 hrs; type: ADME, organism-based, Epididymal fat pad; parameters: dose 30 mg/kg, route oral; conditions: male, read-out: Drug uptake

pIC50 (Stearoyl-CoA desaturase): 5.22 | concentration at 2 h [1]: 1210 nM | concentration at 2 h [2]: 170 nM | pIC50 (Acyl-CoA desaturase 1 [3]): 8.05 | Ratio [4]: 15 | concentration at 3 h [5]: 9290 nM | bioavailability [6]: 43% | Activity [7]: Active | clearance [8]: 8.6 mL/min/kg | concentration at 6 h [9]: 55 nM | concentration at 6 h [10]: 1920 nM | concentration at 24 h [11]: 5 nM | pIC50 [12]: 8.40 | Ratio (Nucleic Acid): < 2 | concentration at 3 h [13]: 53000 nM | concentration at 6 h [14]: 333 nM | concentration at 24 h [15]: 5 nM | pIC50 (Acyl-CoA desaturase 1 [17]): 7.82 | clearance [18]: 81 mL/min/kg | concentration at 6 h [19]: 111 nM | concentration at 24 h [21]: 45 nM
Structure (SMILES): O=C(O)c1cncc(-c2ccc(N3CCC(Oc4cc(F)ccc4Br)CC3)nn2)c1
Ratio IC50 (HepG2): 34 | inhibition in vivo at 30 mg/kg (Mus musculus [16]): 74% | inhibition in vivo at 10 mg/kg (Mus musculus [20]): 25%
